{"source": "patent US20240261333A1", "about": "“NOVEL TARGETS FOR ENHANCING ANTI-TUMOR IMMUNITY” (THE BROAD INSTITUTE, INC., priority 2021, published 2024)", "key": {"[1]": {"target": "Golgi Class I mannosidases IA, IB and IC", "conditions": "cited from earlier work"}, "[2]": {"system": "A375 cells overexpressing B3GNT2", "assay": "Intra- and extra-cellular poly-LacNAc by tomato lectin staining, flow cytometry", "format": "cell-based, human", "conditions": "A375 overexpressing B3GNT2, pretreated with different concentrations of inhibitor", "method": "(§1) For glycosylation inhibition, cells were treated with 20 μg/mL Kifunensine (Cayman Chemical 10009437) or 2 mM Benzyl 2-acetamido-2-deoxy-alpha-D-galactopyranoside (BAG; Millipore Sigma B4894-100MG) for 48 h to inhibit N- and O-glycosylation respectively unless otherwise indicated. For MCL1 inhibition, cells were treated with 1-10 μM of S63845 (Selleck Chemicals S8383) or AZD5991 (Selleck Chemicals S8643) for 4 h before incubation with T cells. Both glycosylation and MCL1 inhibitors were maintained at indicated concentrations during co-culture with T cells.\nPer condition, 5×10^5 cells were pelleted at 200×g for 5 min and washed once with PBS. Cell were fixed in 4% Formaldehyde in PBS at 4° C. for 10 mins. […] For each sample, 10,000 cells were analyzed on a CytoFLEX Flow Cytometer (Beckman Coulter) and quantified with FlowJo (FlowJo). For each experiment, median fluorescence values for 3 biological replicates were compared to determine statistical significance."}, "[3]": {"system": "A375 cells overexpressing B3GNT2", "assay": "Binding of recombinant T cell proteins to A375 cells, flow cytometry", "format": "cell-based, human", "method": "as §1\nPer condition, 5×10^5 cells were pelleted at 200×g for 5 min and washed once with PBS. Cell were fixed in 4% Formaldehyde in PBS at 4° C. for 10 mins. Cells were washed twice with PBS and resuspended in PBS with 25 μg/mL recombinant Fc chimera proteins [PVRIG (R&D Systems 9365-PV-050), CD226 (R&D Systems 666-DN-050), NKG2D (R&D 1299-NK-050), TREML2 (R&D Systems 3259-TL-050), CD2 (R&D Systems 1856-CD-050), CD96 (R&D Systems 9360-CD-050), TIGIT (BPS Bioscience 71186), CD27 (BPS Bioscience 71176), or 4-1BB (TNFRSF9; Sino Bio 10041-H03H)], 0.1 μg/mL HLA-A2:NY-ESO-1 Fab (Stewart-Jones et al., 2009), 5 μg/mL Fas antibody (Millipore Sigma 05-201), 25 μg/mL TNFRSF10B antibody (Novus Biologicals NB100-56618, 1:200), or Dylight 649 labeled Tomato Lectin (Vector Laboratories DL-1178, 1:100). Cells were incubated at 4° C. for 1 h. Cells were washed twice with PBS and resuspended in PBS with the appropriate secondary antibody [IgG Fc PE (Thermo Fisher Scientific 12-4998-82, 1:50), His Tag Alexa Fluor 647 (Thermo Fisher Scientific MA121315A647), mouse Alexa Fluor 568 (Thermo Fisher Scientific A-11031), or rabbit Alexa Fluor 647 (Thermo Fisher Scientific A-21244)]. Cells stained with Tomato Lectin were not incubated with additional secondary antibodies. […] For each sample, 10,000 cells were analyzed on a CytoFLEX Flow Cytometer (Beckman Coulter) and quantified with FlowJo (FlowJo). For each experiment, median fluorescence values for 3 biological replicates were compared to determine statistical significance."}, "[4]": {"system": "CCLF_MELM_0011_T primary patient-derived melanoma model", "assay": "T cell cytotoxicity assay, primary patient-derived melanoma model against AXL or HER2 CAR T cells", "format": "cell-based, human", "conditions": "CCLF_MELM_0011_T treated with small molecule inhibitor", "method": "Expanded T cells were thawed and maintained in culture media for 8-10 h before incubation with cancer cells. Cancer cells were seeded in 96-well plates and allowed to attach for 3-4 h before T cells were added at the appropriate effector to target cell (E:T) ratio. Paired controls with no T cells added were included for each condition. After 18 h, cancer cells were washed twice with PBS to remove T cells, passaged, and cultured for 2 days. Primary patient-derived cell models were not passaged after T cell co-culture. Viability was measured using CellTiter-Glo (Promega G7571). For each E:T ratio, percent survival was calculated as viability of the cells incubated with T cells divided by viability of the paired control that was not incubated with T cells. For example, CD274-overexpressing melanoma cells that were co-cultured with ESO T cells were compared to CD274-overexpressing melanoma cells that were cultured without T cells in parallel. As an alternative cytotoxicity assay, A375 cells stably expressing Gaussia luciferase were co-cultured with ESO T cells. At each time point, 10% of cell culture media was used for the Gaussia luciferase assay (Targeting Systems GAR-2B) to directly measure cytotoxicity. […]"}}, "data": [{"smiles": "O=C1N[C@@H]2[C@@H](O)[C@@H](O)[C@H](O)[C@@H](CO)N2C1=O", "note": "[kifunensine]", "values": [{"measurement": "Ki", "setting": "[1]", "value": 23, "unit": "nM"}, {"measurement": "poly-LacNAc measured by tomato lectin staining", "setting": "[2]", "value": "reduced poly-LacNAc added by B3GNT2 in a dosage-dependent manner"}, {"measurement": "Binding of recombinant T cell proteins to A375 cells", "setting": "[3]; B3GNT2-overexpressing A375 treated with inhibitor, CD2, 4-1BB, TREML2, NKG2D", "value": "rescued the reduction in T cell protein binding"}, {"measurement": "HLA-A2:NY-ESO-1 antibody binding to A375 cells", "setting": "[3]; B3GNT2-overexpressing A375 treated with kifunensine", "value": "further reduced binding"}, {"measurement": "Cell survival against T cell cytotoxicity, primary patient-derived melanoma model", "setting": "[4]", "value": "reduced survival"}]}]}
